Test results published in PubChem BioAssay AID1963843 (Molecular Pharmacology Branch, DTP, NCI, 2024).

Tested on: 616215-338-R-J1-PDC complex spheroid viability
Experiment: Anticancer human tumor 616215-338-R-J1-PDC patient-derived colon adenocarcinoma cell line growth inhibition [POLQ]
Details: for IC50: curve of first compound; for viability, T/C: stronger effect = lower value
How it was run: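 Three-cell-type spheroids modelling solid tumor plus stroma served as the readout system; POL inhibitors were tested individually and in combination, concentration ranges set by clinical Cmax where known.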

[1] = second compound 0.0316 µM, first compound 0.00316 µM
[2] = second compound 0.0316 µM, first compound 0.01 µM
[3] = second compound 0.0316 µM, first compound 0.0316 µM
[4] = second compound 0.0316 µM, first compound 0.1 µM
[5] = second compound 0.0316 µM, first compound 0.316 µM
[6] = second compound 0.0316 µM, first compound 1 µM
[7] = second compound 0.1 µM, first compound 0.00316 µM
[8] = second compound 0.1 µM, first compound 0.01 µM
[9] = second compound 0.1 µM, first compound 0.0316 µM
[10] = second compound 0.1 µM, first compound 0.1 µM
[11] = second compound 0.1 µM, first compound 0.316 µM
[12] = second compound 0.1 µM, first compound 1 µM
[13] = second compound 0.316 µM, first compound 0.00316 µM
[14] = second compound 0.316 µM, first compound 0.01 µM
[15] = second compound 0.316 µM, first compound 0.0316 µM
[16] = second compound 0.316 µM, first compound 0.1 µM
[17] = second compound 0.316 µM, first compound 0.316 µM
[18] = second compound 0.316 µM, first compound 1 µM
[19] = second compound 1 µM, first compound 0.00316 µM
[20] = second compound 1 µM, first compound 0.01 µM
[21] = second compound 1 µM, first compound 0.0316 µM
[22] = second compound 1 µM, first compound 0.1 µM
[23] = second compound 1 µM, first compound 0.316 µM
[24] = second compound 1 µM, first compound 1 µM
[25] = second compound 3.16 µM, first compound 0.00316 µM
[26] = second compound 3.16 µM, first compound 0.01 µM
[27] = second compound 3.16 µM, first compound 0.0316 µM
[28] = second compound 3.16 µM, first compound 0.1 µM
[29] = second compound 3.16 µM, first compound 0.316 µM
[30] = second compound 3.16 µM, first compound 1 µM
[31] = second compound 10 µM, first compound 0.00316 µM
[32] = second compound 10 µM, first compound 0.01 µM
[33] = second compound 10 µM, first compound 0.0316 µM
[34] = second compound 10 µM, first compound 0.1 µM
[35] = second compound 10 µM, first compound 0.316 µM
[36] = second compound 10 µM, first compound 1 µM
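Further: spheroids exposed to compounds for one week before readout.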
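Wherever viability, T/C is given: percent viability relative to DMSO vehicle wells taken as 100%.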

C=CCn1c(=O)c2cnc(Nc3ccc(N4CCN(C)CC4)cc3)nc2n1-c1cccc(C(C)(C)O)n1 + Nc1ccc(C#CCN(C(=O)Cc2ncc(C(F)(F)F)cc2C(F)(F)F)c2ccc(F)cc2)nn1
IC50 (second compound 0.0316 µM): 430 nM | IC50 (second compound 0.1 µM): 285 nM | IC50 (second compound 0.316 µM): 302 nM | IC50 (second compound 1 µM): 365 nM | IC50 (second compound 3.16 µM): 359 nM | IC50 (second compound 10 µM): 244 nM | viability, T/C [1]: 102% | viability, T/C [2]: 98.7% | viability, T/C [3]: 98.4% | viability, T/C [4]: 96.9% | viability, T/C [5]: 55.4% | viability, T/C [6]: 35.4% | viability, T/C [7]: 102% | viability, T/C [8]: 89.1% | viability, T/C [9]: 96.8% | viability, T/C [10]: 97.1% | viability, T/C [11]: 45.3% | viability, T/C [12]: 29.1% | viability, T/C [13]: 99.8% | viability, T/C [14]: 111% | viability, T/C [15]: 107% | viability, T/C [16]: 83% | viability, T/C [17]: 49.9% | viability, T/C [18]: 28.1% | viability, T/C [19]: 98.9% | viability, T/C [20]: 103% | viability, T/C [21]: 100% | viability, T/C [22]: 96.8% | viability, T/C [23]: 53.2% | viability, T/C [24]: 27.6% | viability, T/C [25]: 90% | viability, T/C [26]: 97.9% | viability, T/C [27]: 94.6% | viability, T/C [28]: 87.9% | viability, T/C [29]: 52.9% | viability, T/C [30]: 27% | viability, T/C [31]: 79% | viability, T/C [32]: 91.4% | viability, T/C [33]: 91.1% | viability, T/C [34]: 79.3% | viability, T/C [35]: 41.4% | viability, T/C [36]: 26.5%

CC[C@@]1(O)C(=O)OCc2c1cc1n(c2=O)Cc2cc3c(CN(C)C)c(O)ccc3nc2-1 + Nc1ccc(C#CCN(C(=O)Cc2ncc(C(F)(F)F)cc2C(F)(F)F)c2ccc(F)cc2)nn1
IC50 (second compound 0.0316 µM): 69.9 nM | IC50 (second compound 0.1 µM): 73 nM | IC50 (second compound 0.316 µM): 66.3 nM | IC50 (second compound 1 µM): 66.6 nM | IC50 (second compound 3.16 µM): 59.4 nM | IC50 (second compound 10 µM): 46.1 nM | viability, T/C (second compound 0.0316 µM, first compound 0.000316 µM): 112% | viability, T/C (second compound 0.0316 µM, first compound 0.001 µM): 105% | viability, T/C [1]: 100% | viability, T/C [2]: 101% | viability, T/C [3]: 89.4% | viability, T/C [4]: 32.3% | viability, T/C (second compound 0.1 µM, first compound 0.000316 µM): 103% | viability, T/C (second compound 0.1 µM, first compound 0.001 µM): 103% | viability, T/C [7]: 98.1% | viability, T/C [8]: 102% | viability, T/C [9]: 83.4% | viability, T/C [10]: 37.5% | viability, T/C (second compound 0.316 µM, first compound 0.000316 µM): 111% | viability, T/C (second compound 0.316 µM, first compound 0.001 µM): 119% | viability, T/C [13]: 98.6% | viability, T/C [14]: 99.3% | viability, T/C [15]: 79.8% | viability, T/C [16]: 33.6% | viability, T/C (second compound 1 µM, first compound 0.000316 µM): 108% | viability, T/C (second compound 1 µM, first compound 0.001 µM): 96.6% | viability, T/C [19]: 107% | viability, T/C [20]: 104% | viability, T/C [21]: 66.1% | viability, T/C [22]: 41.1% | viability, T/C (second compound 3.16 µM, first compound 0.000316 µM): 97.9% | viability, T/C (second compound 3.16 µM, first compound 0.001 µM): 108% | viability, T/C [25]: 98.2% | viability, T/C [26]: 98.3% | viability, T/C [27]: 75.3% | viability, T/C [28]: 29.1% | viability, T/C (second compound 10 µM, first compound 0.000316 µM): 85.5% | viability, T/C (second compound 10 µM, first compound 0.001 µM): 90.1% | viability, T/C [31]: 96.4% | viability, T/C [32]: 94.2% | viability, T/C [33]: 55.8% | viability, T/C [34]: 38%

CCc1c2c(nc3ccc(O)cc13)-c1cc3c(c(=O)n1C2)COC(=O)[C@]3(O)CC + Nc1ccc(C#CCN(C(=O)Cc2ncc(C(F)(F)F)cc2C(F)(F)F)c2ccc(F)cc2)nn1
IC50 (second compound 0.0316 µM): 10.4 nM | IC50 (second compound 0.1 µM): 14.8 nM | IC50 (second compound 0.316 µM): 18.1 nM | IC50 (second compound 1 µM): 8.73 nM | IC50 (second compound 3.16 µM): 8.16 nM | IC50 (second compound 10 µM): 7.26 nM | viability, T/C [1]: 82.6% | viability, T/C [2]: 51.4% | viability, T/C [3]: 28.6% | viability, T/C [4]: 23.1% | viability, T/C [5]: 15.7% | viability, T/C [6]: 9.67% | viability, T/C [7]: 85.5% | viability, T/C [8]: 55.2% | viability, T/C [9]: 33.7% | viability, T/C [10]: 32.2% | viability, T/C [11]: 15.5% | viability, T/C [12]: 9.4% | viability, T/C [13]: 72.8% | viability, T/C [14]: 71% | viability, T/C [15]: 30.3% | viability, T/C [16]: 28.1% | viability, T/C [17]: 17.3% | viability, T/C [18]: 10.2% | viability, T/C [19]: 83.8% | viability, T/C [20]: 37.8% | viability, T/C [21]: 34% | viability, T/C [22]: 28.9% | viability, T/C [23]: 17% | viability, T/C [24]: 10.2% | viability, T/C [25]: 77.6% | viability, T/C [26]: 39.2% | viability, T/C [27]: 29.3% | viability, T/C [28]: 28.6% | viability, T/C [29]: 11.9% | viability, T/C [30]: 10.9% | viability, T/C [31]: 59.2% | viability, T/C [32]: 47.8% | viability, T/C [33]: 28.5% | viability, T/C [34]: 22.5% | viability, T/C [35]: 16.1% | viability, T/C [36]: 12.8%
